Consider five compounds from ChEMBL document CHEMBL5465560, “Selectivity Literature for EUbOPEN Chemogenomic Library” (2024).

Structures are written as SMILES.

Test [1] deals with Serine/threonine-protein kinase PLK3 (Homo sapiens, UniProt Q9H4B4). Description: Selectivity interaction (KinomeScan (DiscoverX)) EUB0000655a PLK3. The settings on record: at 10 µM.
Test [2] has as its target T1, Serine/threonine-protein kinase DCLK1 (Homo sapiens) (UniProt O15075).
T1 sequence (whole entry): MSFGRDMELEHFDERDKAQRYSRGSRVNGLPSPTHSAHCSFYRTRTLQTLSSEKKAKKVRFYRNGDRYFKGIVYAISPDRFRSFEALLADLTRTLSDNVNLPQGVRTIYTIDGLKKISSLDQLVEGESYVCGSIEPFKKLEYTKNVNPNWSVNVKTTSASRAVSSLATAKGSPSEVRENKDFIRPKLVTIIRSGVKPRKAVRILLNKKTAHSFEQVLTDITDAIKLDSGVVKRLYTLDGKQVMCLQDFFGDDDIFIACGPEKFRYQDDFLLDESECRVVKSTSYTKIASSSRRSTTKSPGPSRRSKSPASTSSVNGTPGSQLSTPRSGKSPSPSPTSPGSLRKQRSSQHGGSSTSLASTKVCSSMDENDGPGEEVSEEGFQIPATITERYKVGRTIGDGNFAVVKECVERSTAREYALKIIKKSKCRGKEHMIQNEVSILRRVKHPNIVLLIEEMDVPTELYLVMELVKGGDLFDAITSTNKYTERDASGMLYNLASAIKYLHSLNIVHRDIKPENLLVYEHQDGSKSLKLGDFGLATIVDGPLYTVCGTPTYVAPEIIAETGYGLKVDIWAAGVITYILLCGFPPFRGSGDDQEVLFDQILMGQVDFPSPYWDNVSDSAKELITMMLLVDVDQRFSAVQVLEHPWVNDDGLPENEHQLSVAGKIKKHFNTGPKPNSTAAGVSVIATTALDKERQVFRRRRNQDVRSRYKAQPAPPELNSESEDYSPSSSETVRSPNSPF
The experiment in a line: Selectivity interaction (KinomeScan (DiscoverX)) EUB0000045b DCLK1.

The target of test [3] is T2, Interleukin-1 receptor-associated kinase 4 (Homo sapiens) (UniProt Q9NWZ3).
T2 sequence (whole entry): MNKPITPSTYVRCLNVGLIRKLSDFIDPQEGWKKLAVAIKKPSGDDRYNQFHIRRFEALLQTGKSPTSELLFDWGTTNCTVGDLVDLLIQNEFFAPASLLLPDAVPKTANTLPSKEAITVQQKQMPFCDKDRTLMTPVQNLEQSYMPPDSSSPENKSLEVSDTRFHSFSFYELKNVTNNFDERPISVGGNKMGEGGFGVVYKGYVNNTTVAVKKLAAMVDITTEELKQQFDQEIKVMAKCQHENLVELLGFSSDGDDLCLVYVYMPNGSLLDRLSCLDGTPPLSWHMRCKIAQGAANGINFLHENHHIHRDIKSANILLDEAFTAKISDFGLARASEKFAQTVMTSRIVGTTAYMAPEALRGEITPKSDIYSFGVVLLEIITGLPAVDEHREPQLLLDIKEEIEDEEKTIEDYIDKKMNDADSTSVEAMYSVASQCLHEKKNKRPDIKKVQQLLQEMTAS
Description: Selectivity interaction (KinomeScan (DiscoverX)) EUB0000666a IRAK4. As to conditions: at 10 µM.

For test [4], the target named is T3, Serine/threonine-protein kinase Sgk3 (Homo sapiens) (UniProt Q96BR1).
T3 sequence (whole entry): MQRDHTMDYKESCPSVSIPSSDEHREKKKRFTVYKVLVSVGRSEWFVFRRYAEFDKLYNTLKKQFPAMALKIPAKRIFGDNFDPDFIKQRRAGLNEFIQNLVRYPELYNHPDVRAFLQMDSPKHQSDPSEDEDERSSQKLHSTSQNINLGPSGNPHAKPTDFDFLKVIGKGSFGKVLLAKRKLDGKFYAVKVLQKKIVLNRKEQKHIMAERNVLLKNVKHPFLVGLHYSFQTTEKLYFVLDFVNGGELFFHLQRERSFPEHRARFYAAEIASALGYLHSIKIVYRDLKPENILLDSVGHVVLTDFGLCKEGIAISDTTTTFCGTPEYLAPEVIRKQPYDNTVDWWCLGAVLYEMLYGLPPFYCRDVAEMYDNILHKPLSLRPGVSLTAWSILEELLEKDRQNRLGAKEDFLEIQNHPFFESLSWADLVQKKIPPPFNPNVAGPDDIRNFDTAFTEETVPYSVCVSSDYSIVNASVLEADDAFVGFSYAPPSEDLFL
The experiment in a line: Selectivity interaction (KinomeScan (DiscoverX)) EUB0000666a SGK3. As to conditions: at 10 µM.

For test [5], the target named is Cyclin-dependent kinase inhibitor 2A (Homo sapiens, UniProt P42771). Description: Selectivity interaction (Kinase panel (33PanQinase(R) Activity Assay)) EUB0000877a CDKN2A.
Chain of Cyclin-dependent kinase inhibitor 2A (P42771 whole entry): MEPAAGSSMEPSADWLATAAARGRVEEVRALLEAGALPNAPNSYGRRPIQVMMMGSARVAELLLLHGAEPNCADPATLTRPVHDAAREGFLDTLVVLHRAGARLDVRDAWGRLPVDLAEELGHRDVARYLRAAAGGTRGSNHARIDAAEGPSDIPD
The target in test [6] is T4, Mitogen-activated protein kinase kinase kinase 13 (Homo sapiens) (UniProt O43283).
T4 sequence (whole entry): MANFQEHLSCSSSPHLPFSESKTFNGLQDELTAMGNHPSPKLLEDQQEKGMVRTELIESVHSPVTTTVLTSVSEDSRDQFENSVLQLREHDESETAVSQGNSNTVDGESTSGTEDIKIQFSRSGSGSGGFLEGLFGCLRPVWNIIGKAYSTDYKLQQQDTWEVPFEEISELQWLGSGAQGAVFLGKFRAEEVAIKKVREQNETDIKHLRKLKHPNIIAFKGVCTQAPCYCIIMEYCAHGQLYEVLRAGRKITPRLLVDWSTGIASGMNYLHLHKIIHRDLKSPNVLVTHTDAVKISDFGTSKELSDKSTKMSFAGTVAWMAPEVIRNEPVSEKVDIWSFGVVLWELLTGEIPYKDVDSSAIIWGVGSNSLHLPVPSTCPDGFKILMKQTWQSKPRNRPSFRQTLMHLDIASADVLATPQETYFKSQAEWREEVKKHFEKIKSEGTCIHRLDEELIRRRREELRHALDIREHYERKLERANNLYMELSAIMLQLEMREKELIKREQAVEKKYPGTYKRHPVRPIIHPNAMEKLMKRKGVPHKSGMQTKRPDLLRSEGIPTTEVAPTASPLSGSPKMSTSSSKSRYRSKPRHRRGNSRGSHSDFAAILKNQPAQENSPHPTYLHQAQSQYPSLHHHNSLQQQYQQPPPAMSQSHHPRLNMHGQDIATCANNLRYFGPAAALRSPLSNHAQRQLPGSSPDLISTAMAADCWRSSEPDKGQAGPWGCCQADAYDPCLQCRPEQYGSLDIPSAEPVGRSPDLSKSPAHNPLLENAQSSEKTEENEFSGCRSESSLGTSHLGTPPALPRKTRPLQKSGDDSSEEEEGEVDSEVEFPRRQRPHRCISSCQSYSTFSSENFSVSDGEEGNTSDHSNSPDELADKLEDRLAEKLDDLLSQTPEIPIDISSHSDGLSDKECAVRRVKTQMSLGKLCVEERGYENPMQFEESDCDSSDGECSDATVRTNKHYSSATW
The experiment in a line: Selectivity interaction (KinomeScan (DiscoverX)) EUB0000618a MAP3K13. As to conditions: at 10 µM.

In test [7] the target is Tyrosine-protein kinase ABL2 (Homo sapiens, UniProt P42684). Description: Selectivity interaction (KinomeScan (DiscoverX)) EUB0000618a ABL2. As to conditions: at 10 µM.
Chain of Tyrosine-protein kinase ABL2 (P42684 whole entry): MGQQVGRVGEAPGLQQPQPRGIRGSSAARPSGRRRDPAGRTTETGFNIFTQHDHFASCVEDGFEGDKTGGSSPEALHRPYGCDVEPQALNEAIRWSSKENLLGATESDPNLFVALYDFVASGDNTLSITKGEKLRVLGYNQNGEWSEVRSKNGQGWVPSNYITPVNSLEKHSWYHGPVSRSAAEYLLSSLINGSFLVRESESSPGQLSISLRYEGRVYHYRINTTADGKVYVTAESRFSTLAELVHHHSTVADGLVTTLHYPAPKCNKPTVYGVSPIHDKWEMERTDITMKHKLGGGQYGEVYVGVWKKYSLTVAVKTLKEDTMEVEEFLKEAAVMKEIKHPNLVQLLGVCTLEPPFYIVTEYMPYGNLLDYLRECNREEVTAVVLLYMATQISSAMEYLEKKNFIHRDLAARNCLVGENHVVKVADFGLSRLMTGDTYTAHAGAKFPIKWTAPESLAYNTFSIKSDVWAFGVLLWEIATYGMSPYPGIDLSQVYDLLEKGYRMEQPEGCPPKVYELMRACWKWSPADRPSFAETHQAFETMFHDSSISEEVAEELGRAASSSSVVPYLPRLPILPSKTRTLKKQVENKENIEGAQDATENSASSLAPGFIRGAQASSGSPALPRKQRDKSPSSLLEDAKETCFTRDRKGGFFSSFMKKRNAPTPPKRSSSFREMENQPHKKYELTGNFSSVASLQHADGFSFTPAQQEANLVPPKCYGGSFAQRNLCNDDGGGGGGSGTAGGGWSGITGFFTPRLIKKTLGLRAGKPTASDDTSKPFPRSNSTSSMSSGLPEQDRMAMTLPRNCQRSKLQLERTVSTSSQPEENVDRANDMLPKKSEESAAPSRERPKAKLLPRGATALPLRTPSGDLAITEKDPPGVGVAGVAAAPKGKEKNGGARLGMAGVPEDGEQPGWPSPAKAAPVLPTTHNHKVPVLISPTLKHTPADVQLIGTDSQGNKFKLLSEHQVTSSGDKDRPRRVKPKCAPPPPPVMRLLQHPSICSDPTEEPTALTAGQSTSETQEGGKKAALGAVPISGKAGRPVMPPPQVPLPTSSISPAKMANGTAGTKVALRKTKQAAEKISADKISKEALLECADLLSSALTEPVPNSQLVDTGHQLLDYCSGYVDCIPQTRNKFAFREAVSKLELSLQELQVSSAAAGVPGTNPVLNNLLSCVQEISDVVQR

Chain of Serine/threonine-protein kinase PLK3 (Q9H4B4 whole entry, looked up): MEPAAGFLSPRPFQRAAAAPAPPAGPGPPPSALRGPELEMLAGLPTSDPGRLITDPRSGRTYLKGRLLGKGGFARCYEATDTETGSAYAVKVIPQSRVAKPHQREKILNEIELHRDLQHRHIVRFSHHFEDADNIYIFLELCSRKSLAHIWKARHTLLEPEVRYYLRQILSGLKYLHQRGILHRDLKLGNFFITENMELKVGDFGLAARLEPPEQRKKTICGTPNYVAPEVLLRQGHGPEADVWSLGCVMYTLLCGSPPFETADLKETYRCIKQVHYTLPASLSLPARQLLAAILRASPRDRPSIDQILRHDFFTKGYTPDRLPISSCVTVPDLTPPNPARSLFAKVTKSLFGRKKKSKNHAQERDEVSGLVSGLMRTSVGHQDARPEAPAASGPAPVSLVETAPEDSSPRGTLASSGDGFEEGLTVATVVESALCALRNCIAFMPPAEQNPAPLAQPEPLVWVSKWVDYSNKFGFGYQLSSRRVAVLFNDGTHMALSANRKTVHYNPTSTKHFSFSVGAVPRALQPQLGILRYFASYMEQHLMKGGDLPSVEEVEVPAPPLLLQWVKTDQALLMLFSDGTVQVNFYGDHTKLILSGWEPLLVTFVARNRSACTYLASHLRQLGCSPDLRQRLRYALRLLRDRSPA

Regarding `CN(C)CCOc1ccc(-c2nc(-c3ccncc3)c(-c3ccc4c(c3)CC/C4=N\O)[nH]2)cc1`, in test [1], the % of control is 94%.

As to `C=CC(=O)Nc1cc(-n2c(=O)ccc3cnc4ccc(-c5ccc(NS(C)(=O)=O)cc5)cc4c32)ccc1C`, the results for the % of control in test [2] (at 1 µM) and in test [2] (at 10 µM) were 100% and 84%, respectively.

Regarding `O=C(NOC[C@H](O)CO)c1ccc(F)c(F)c1Nc1ccc(I)cc1F`, the % of control in test [3] was determined as 100%; in test [4] it was 89%.

In the case of `CCC(=O)N1CC[C@H](Nc2ncnc3c2CN(c2cnc(OC)c(C(F)(F)F)c2)CC3)C1` [LENIOLISIB], the 50% inhibitory concentration (IC50) in test [5] was above 10 µM.

As for `O[C@H]1CC[C@H](Nc2ncc3nc(Nc4c(F)cc(F)cc4F)n([C@H]4CCOC4)c3n2)CC1`, the % of control in test [6] and in test [7] was 100% each time.
